According to patent US6355799B1, “Substituted benzene compounds, process for their preparation, and herbicidal and defoliant compositions containing them” (ISK Americas Incorporated, priority 1997, dated 2002):

Tests used:
Assay type in all cases: in vivo
[1] = tested on: redroot pigweed (Amaranthus retroflexus, AMARE); assay: Pre-emerge test, greenhouse herbicide activity screening; conditions: pre-emerge, phytotoxicity rating 0-100 at 14 days after application
In short: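 Sandy loam pots; pre-emerge: sown 1 d pre-spray, surface-watered after, then bottom-watered. Post-emerge: sown 8–21 d before, 2–3 leaf stage, + 0.25% v/v NIS, bottom-watered. Acetone, 187 l/ha track spray, 15–1000 g ai/ha. 0–100 injury score, day 14.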

[2] = tested on: barnyardgrass (Echinochloa crus-galli, ECHCG); assay: as above; conditions: pre-emerge, phytotoxicity rating 0-100 at 14 days after application
In short: (§1)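 Rating: 0–100 visual injury, 14 DAA. Application: acetone, 187 l/ha, 15–1000 g ai/ha, flat-fan track sprayer with nozzle 40–45 cm above soil or canopy. Post-emerge runs used 0.25% v/v surfactant on 2–3 leaf plants.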

[3] = tested on: common ragweed (Ambrosia artemisizfolia L., AMBEL); assay: as above; conditions: pre-emerge, phytotoxicity rating 0-100 at 14 days after application
In short: as §1

[4] = tested on: green foxtail (Setaria viridis, SETVI); assay: as above; conditions: pre-emerge, phytotoxicity rating 0-100 at 14 days after application
In short: as §1

[5] = tested on: ivyleaf morningglory (Ipomoea hederacea, IPOHE); assay: as above; conditions: pre-emerge, phytotoxicity rating 0-100 at 14 days after application
In short: as §1

[6] = tested on: johnsongrass (Sorghum halepense, SORHA); assay: as above; conditions: pre-emerge, phytotoxicity rating 0-100 at 14 days after application
In short: as §1

[7] = tested on: lambsquarters (Chenopodium album, CHEAL); assay: as above; conditions: pre-emerge, phytotoxicity rating 0-100 at 14 days after application
In short: as §1

[8] = tested on: large crabgrass (Digitaria sanguinalis, DIGSA); assay: as above; conditions: pre-emerge, phytotoxicity rating 0-100 at 14 days after application
In short: as §1

[9] = tested on: sicklepod (Cassia obtusifolia, CASOB); assay: as above; conditions: pre-emerge, phytotoxicity rating 0-100 at 14 days after application
In short: as §1

[10] = tested on: velvetleaf (Abutilon theophrasti, ABUTH); assay: as above; conditions: pre-emerge, phytotoxicity rating 0-100 at 14 days after application
In short: as §1

[11] = tested on: field corn (Zea mays L., var. Dekalb 535, CORN); assay: Pre-emerge test, crop safety; conditions: crop damage, pre-emerge, phytotoxicity rating 0-100 at 14 days after application
In short: (§2)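 Compounds in acetone were track-sprayed at 15-1000 g ai/ha (187 l/ha) on sandy loam pots: pre-emerge one day after seeding, post-emerge at 2-3 leaf stage with 0.25% v/v non-ionic surfactant. Phytotoxicity was rated 14 days later on a 0 (no damage) to 100 (complete death) scale.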

[12] = tested on: upland rice (Oryza sp., var. Tebonnet, RICE); assay: Pre-emerge test, crop safety; conditions: crop damage, pre-emerge, phytotoxicity rating 0-100 at 14 days after application
In short: as §2

[13] = tested on: barnyardgrass (Echinochloa crus-galli, ECHCG); assay: Post-emerge test, greenhouse herbicide activity screening; conditions: post-emerge, phytotoxicity rating 0-100 at 14 days after application
In short: (§3)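 Fourteen days after spraying, crop and weed injury was graded visually from 0, no effect, to 100, every plant dead. Test substances were dissolved in acetone and applied at 15–1000 g ai/ha with a flat-fan nozzle. Application was either pre-emergence, one day after sowing, or post-emergence at the 2–3 leaf stage.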

[14] = tested on: green foxtail (Setaria viridis, SETVI); assay: as above; conditions: post-emerge, phytotoxicity rating 0-100 at 14 days after application
In short: as §3

[15] = tested on: ivyleaf morningglory (Ipomoea hederacea, IPOHE); assay: as above; conditions: post-emerge, phytotoxicity rating 0-100 at 14 days after application
In short: as §3

[16] = tested on: johnsongrass (Sorghum halepense, SORHA); assay: as above; conditions: post-emerge, phytotoxicity rating 0-100 at 14 days after application
In short: as §3

[17] = tested on: lambsquarters (Chenopodium album, CHEAL); assay: as above; conditions: post-emerge, phytotoxicity rating 0-100 at 14 days after application
In short: as §3

[18] = tested on: large crabgrass (Digitaria sanguinalis, DIGSA); assay: as above; conditions: post-emerge, phytotoxicity rating 0-100 at 14 days after application
In short: as §3

[19] = tested on: redroot pigweed (Amaranthus retroflexus, AMARE); assay: as above; conditions: post-emerge, phytotoxicity rating 0-100 at 14 days after application
In short: as §3

[20] = tested on: sicklepod (Cassia obtusifolia, CASOB); assay: as above; conditions: post-emerge, phytotoxicity rating 0-100 at 14 days after application
In short: as §3

[21] = tested on: velvetleaf (Abutilon theophrasti, ABUTH); assay: as above; conditions: post-emerge, phytotoxicity rating 0-100 at 14 days after application
In short: as §3

[22] = tested on: field corn (Zea mays L., var. Dekalb 535, CORN); assay: Post-emerge test, crop safety; conditions: post-emerge, crop damage rating 0-100 at 14 days after application
In short: (§4)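 Plants grown in 10 cm pots of sandy loam mix received acetone-dissolved compounds through a moving flat-fan nozzle. Doses ranged from 15 to 1000 g ai/ha. Pre-emerge pots were seeded one day earlier, post-emerge pots 8–21 days earlier. Fourteen days on, each pot was graded 0–100 for damage.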

[23] = tested on: upland rice (Oryza sp., var. Tebonnet, RICE); assay: Post-emerge test, crop safety; conditions: post-emerge, crop damage rating 0-100 at 14 days after application
In short: as §4

With `COc1c(Cl)cc(F)c(-n2ncc(C(F)(F)F)c(C)c2=O)c1NC(=O)c1ccc2ccccc2c1` [11-13] the “Pre-emerge Herbicidal Activity AMARE” value ([1]; rate 63 g ai/ha) was 100, the “Pre-emerge Herbicidal Activity AMARE” value ([1]; rate 250 g ai/ha) was 10 and the “Pre-emerge Herbicidal Activity ECHCG” value ([2]; rate 63 g ai/ha) was 30. The “Pre-emerge Herbicidal Activity ECHCG” value ([2]; rate 250 g ai/ha) was 80, the “Pre-emerge Herbicidal Activity AMBEL” value ([3]; rate 63 g ai/ha) was 30 and the “Pre-emerge Herbicidal Activity AMBEL” value ([3]; rate 250 g ai/ha) was 60. The “Pre-emerge Herbicidal Activity SETVI” value ([4]; rate 63 g ai/ha) was 70, the “Pre-emerge Herbicidal Activity SETVI” value ([4]; rate 250 g ai/ha) was 100 and the “Pre-emerge Herbicidal Activity IPOHE” value ([5]; rate 63 g ai/ha) was 65. For the same compound, the “Pre-emerge Herbicidal Activity IPOHE” value ([5]; rate 250 g ai/ha) was 80, the “Pre-emerge Herbicidal Activity SORHA” value ([6]; rate 63 g ai/ha) was 0 and the “Pre-emerge Herbicidal Activity SORHA” value ([6]; rate 250 g ai/ha) was 40. The “Pre-emerge Herbicidal Activity CHEAL” value ([7]; rate 63 g ai/ha) was 100, the “Pre-emerge Herbicidal Activity CHEAL” value ([7]; rate 250 g ai/ha) was 100 and the “Pre-emerge Herbicidal Activity DIGSA” value ([8]; rate 63 g ai/ha) was 60. The “Pre-emerge Herbicidal Activity DIGSA” value ([8]; rate 250 g ai/ha) was 100, the “Pre-emerge Herbicidal Activity CASOB” value ([9]; rate 63 g ai/ha) was 0 and the “Pre-emerge Herbicidal Activity CASOB” value ([9]; rate 250 g ai/ha) was 85. For the same compound, the “Pre-emerge Herbicidal Activity ABUTH” value ([10]; rate 63 g ai/ha) was 95, the “Pre-emerge Herbicidal Activity ABUTH” value ([10]; rate 250 g ai/ha) was 100 and the “Pre-emerge Herbicidal Activity CORN” value ([11]; rate 63 g ai/ha) was 0. The “Pre-emerge Herbicidal Activity CORN” value ([11]; rate 250 g ai/ha) was 0, the “Pre-emerge Herbicidal Activity RICE” value ([12]; rate 63 g ai/ha) was 0 and the “Pre-emerge Herbicidal Activity RICE” value ([12]; rate 250 g ai/ha) was 15. The “Post-emerge Herbicidal Activity ECHCG” value ([13]; 63 g ai/ha) was 65, the “Post-emerge Herbicidal Activity ECHCG” value ([13]; 250 g ai/ha) was 55 and the “Post-emerge Herbicidal Activity SETVI” value ([14]; 63 g ai/ha) was 55. The “Post-emerge Herbicidal Activity SETVI” value ([14]; 250 g ai/ha) was 40, the “Post-emerge Herbicidal Activity IPOHE” value ([15]; 63 g ai/ha) was 98 and the “Post-emerge Herbicidal Activity IPOHE” value ([15]; 250 g ai/ha) was 98. The “Post-emerge Herbicidal Activity SORHA” value ([16]; 63 g ai/ha) was 0, the “Post-emerge Herbicidal Activity SORHA” value ([16]; 250 g ai/ha) was 15 and the “Post-emerge Herbicidal Activity CHEAL” value ([17]; 63 g ai/ha) was 100. For the same compound, the “Post-emerge Herbicidal Activity CHEAL” value ([17]; 250 g ai/ha) was 100, the “Post-emerge Herbicidal Activity DIGSA” value ([18]; 63 g ai/ha) was 40 and the “Post-emerge Herbicidal Activity DIGSA” value ([18]; 250 g ai/ha) was 60. For the same compound, the “Post-emerge Herbicidal Activity AMARE” value ([19]; 63 g ai/ha) was 100, the “Post-emerge Herbicidal Activity AMARE” value ([19]; 250 g ai/ha) was 100 and the “Post-emerge Herbicidal Activity CASOB” value ([20]; 63 g ai/ha) was 85. The “Post-emerge Herbicidal Activity CASOB” value ([20]; 250 g ai/ha) was 85, the “Post-emerge Herbicidal Activity ABUTH” value ([21]; 63 g ai/ha) was 95 and the “Post-emerge Herbicidal Activity ABUTH” value ([21]; 250 g ai/ha) was 100. The “Post-emerge Herbicidal Activity CORN” value ([22]; 63 g ai/ha) was 45, the “Post-emerge Herbicidal Activity CORN” value ([22]; 250 g ai/ha) was 45 and the “Post-emerge Herbicidal Activity RICE” value ([23]; 63 g ai/ha) was 45. The “Post-emerge Herbicidal Activity RICE” value ([23]; 250 g ai/ha) was 65.
